From patent publication US11911411B2, “Sulfated glycosaminoglycan biomaterials as proteoglycan mimics” (Glycologix, LLC, priority 2020, dated 2024)

System: bladder permeability in LPS-treated URO-MCP-1 mice
Experiment: CE-MRI (Gd-DTPA) assessment of bladder permeability, LPS-treated URO-MCP-1 transgenic mouse model of IC/BPS
Format: in vivo
Settings: 20 mg/ml, 100 μl
Method: The URO-MCP-1 transgenic model was described previously. Cystitis with accompanying permeability were induced by intravesical administration of LPS at a sub-noxious dose of 1 jig of LPS in 100 μl of saline (Day 0, 9 a.m.). One control group was administered saline (100 μl) only (saline URO-MCP-1). Another control group consisting of wild-type (WT) mice was also administered saline only (saline-WT). Bladders were flushed 3 times with saline to remove any excess LPS 1 hour post-LPS injection. The next day (Day 1, 9 am) animals were treated with CS or SuperGAG (20 mg/ml in saline; 100 μl) or saline and the initial permeability was assessed 3 hours later (Day 1, 12:00 p.m.).
For MRI assessment of permeability, mice were anesthetized and treated as described above, but instead of euthanizing the mice, on Day 1, Day 3, and Day 5 the mice were anesthetized, instilled with the contrast agent Gd-DTPA and placed into the MRI instrument. MRI experiments were conducted on a 7 Tesla 30 cm-bore Bruker Biospec MRI system (Bruker Biospin Corporation, Woodlands, TX, U.S.A.). MRI scans were obtained at 1-, 3-, and 5-days following LPS instillation. For the bladder images, Gd-DTPA (0.034 mM Gd-DTPA diluted to 100 μl in saline), was administered via an intravesical catheter, for visualization of loss of permeability of the bladder urothelium. Bladder CE-MRI signal intensity changes were determined 7 minutes. post-contrast. For all MR images, a T1-weighted RARE (rapid acquisition with relaxation enhancement) MRI pulse sequence was used with the following parameters: repetition time (TR) of 1200 ms, echo time (TE) of 9 ms, a RARE factor of 4, 4 averages, an image slice thickness of 1 mm, a matrix of 256×256, a field-of-view (FOV) of 3.5×3.5 cm2, and with both motion and fat suppression. Animals were euthanized and the bladders placed in formalin for histopathology.

Substance: chondroitin sulfate [CS]
- percent change in MRI signal intensity versus LPS-treated URO-MCP-1 mice, day 1 (day 1, *p< (figure not given)): significant decrease
- percent change in MRI signal intensity versus LPS-treated URO-MCP-1 mice, day 3 (day 3, ***p<0.0001 for both): significant decrease
- percent change in MRI signal intensity versus LPS-treated URO-MCP-1 mice, day 5 (day 5, **p<0.01 for SuperGAG): not significantly different to control
